Tests used:
[1] = Complex formation of drug with cardiolipin-containing liposomes (centrifugation, spectrophotometry of supernatant); type: physicochemical; details: same conditions as doxorubicin, mixed with cardiolipin-containing liposomes
Protocol: Formation of the complex liposome-doxorubicin was evaluated relative to the time of the incubation at 25° C. following the mixing of both components (FIG. 1).
Association capacity of doxorubicin to cardiolipin-liposomes was evaluated for different concentrations of mixture of both components mixed in the same volume (5 ml) after an incubation of 15 min. at 37° C. at a fixed liposome/doxorubicin weight ratio of 11 (Table 1).

LZ cells = experiment: Clonogenic assay, cytotoxicity / multidrug resistance reversal in LZ cells; details: mixed with cardiolipin-containing liposomes
Protocol: Percent survival of treated cells was determined relative to untreated control.

CC[C@]1(O)C[C@H]2CN(CCc3c([nH]c4ccccc34)[C@@](C(=O)OC)(c3cc4c(cc3OC)N(C=O)[C@H]3[C@@](O)(C(=O)OC)[C@H](OC(C)=O)[C@]5(CC)C=CCN6CC[C@]43[C@@H]65)C2)C1 [vincristine]
association between drug and liposome (in words) [1]: no association between drug and liposome was formed | increase in drug cytotoxicity (in words) (LZ cells): no increase in drug cytotoxicity was observed
